# According to the supplement of paper PMC10307832:
# How the values were obtained:
# Assay in all cases: relative viability (nuclei count vs DMSO), 5 days (fraction); higher = more cells survive
# HOP-62 = system: HOP-62
# Outline: (§1)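 Five library-drug doses in √10 steps were combined with a fixed anchor-drug dose, or a single drug was given alone, by pin tool to lung cancer cell lines in 1536-well plates the day after seeding. Nuclei were stained and counted after 5 days. Relative viability is the nuclei count in treated wells over that in vehicle wells, taken as the median of duplicate plates.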
# EMC-BAC-2 = system: EMC-BAC-2
# Outline: as §1
# COR-L 105 = system: COR-L 105
# Outline: as §1
# NCI-H2405 = system: NCI-H2405
# Outline: as §1
# NCI-H1734 = system: NCI-H1734
# Outline: as §1
# COR-L23 = system: COR-L23
# Outline: as §1
# PC-14 = system: PC-14
# Outline: as §1
# NCI-H1993 = system: NCI-H1993
# Outline: as §1
# NCI-H1915 = system: NCI-H1915
# Outline: as §1
# HCC-78 = system: HCC-78
# Outline: as §1
# LK-2 = system: LK-2
# Outline: as §1
# NCI-H647 = system: NCI-H647
# Outline: as §1
# EKVX = system: EKVX
# Outline: as §1
# HCC-15 = system: HCC-15
# Outline: as §1
# NCI-H522 = system: NCI-H522
# Outline: as §1
# HCC-366 = system: HCC-366
# Outline: as §1
# 201T = system: 201T
# Outline: as §1
# NCI-H661 = system: NCI-H661
# Outline: as §1
# A-427 = system: A-427
# Outline: as §1
# NCI-H460 = system: NCI-H460
# Outline: as §1
# BEN = system: BEN
# Outline: as §1
# SK-MES-1 = system: SK-MES-1
# Outline: as §1
smiles,measurement,setting,value
CCNC(=O)c1noc(-c2cc(C(C)C)c(O)cc2O)c1-c1ccc(CN2CCOCC2)cc1 [Luminespib] + CC(=O)c1c(C)c2cnc(Nc3ccc(N4CCNCC4)cn3)nc2n(C2CCCC2)c1=O [Palbociclib] (partner 0.5 µM),relative viability,HOP-62; first compound 0.002 µM,0.451
same,relative viability,HOP-62; first compound 0.006325 µM,0.449
same,relative viability,HOP-62; first compound 0.02 µM,0.594
same,relative viability,HOP-62; first compound 0.06325 µM,0.384
same,relative viability,HOP-62; first compound 0.2 µM,0.235
same,relative viability,EMC-BAC-2; first compound 0.002 µM,0.543
same,relative viability,EMC-BAC-2; first compound 0.006325 µM,0.495
same,relative viability,EMC-BAC-2; first compound 0.02 µM,0.424
same,relative viability,EMC-BAC-2; first compound 0.06325 µM,0.398
same,relative viability,EMC-BAC-2; first compound 0.2 µM,0.31
same,relative viability,COR-L 105; first compound 0.002 µM,0.412
same,relative viability,COR-L 105; first compound 0.006325 µM,0.445
same,relative viability,COR-L 105; first compound 0.02 µM,0.366
same,relative viability,COR-L 105; first compound 0.06325 µM,0.265
same,relative viability,COR-L 105; first compound 0.2 µM,0.289
same,relative viability,NCI-H2405; first compound 0.002 µM,0.557
same,relative viability,NCI-H2405; first compound 0.02 µM,0.417
same,relative viability,NCI-H2405; first compound 0.06325 µM,0.172
same,relative viability,NCI-H2405; first compound 0.2 µM,0.164
same,relative viability,NCI-H1734; first compound 0.002 µM,0.359
same,relative viability,NCI-H1734; first compound 0.006325 µM,0.389
same,relative viability,NCI-H1734; first compound 0.02 µM,0.334
same,relative viability,NCI-H1734; first compound 0.06325 µM,0.204
same,relative viability,NCI-H1734; first compound 0.2 µM,0.144
same,relative viability,COR-L23; first compound 0.002 µM,0.343
same,relative viability,COR-L23; first compound 0.006325 µM,0.274
same,relative viability,COR-L23; first compound 0.02 µM,0.26
same,relative viability,COR-L23; first compound 0.06325 µM,0.0657
same,relative viability,COR-L23; first compound 0.2 µM,0.071
same,relative viability,PC-14; first compound 0.002 µM,0.541
same,relative viability,PC-14; first compound 0.006325 µM,0.367
same,relative viability,PC-14; first compound 0.02 µM,0.315
same,relative viability,PC-14; first compound 0.06325 µM,0.0535
same,relative viability,PC-14; first compound 0.2 µM,0.0542
same,relative viability,NCI-H1993; first compound 0.002 µM,0.714
same,relative viability,NCI-H1993; first compound 0.006325 µM,0.611
same,relative viability,NCI-H1993; first compound 0.02 µM,0.473
same,relative viability,NCI-H1993; first compound 0.06325 µM,0.716
same,relative viability,NCI-H1993; first compound 0.2 µM,0.413
same,relative viability,NCI-H1915; first compound 0.002 µM,0.562
same,relative viability,NCI-H1915; first compound 0.006325 µM,0.507
same,relative viability,NCI-H1915; first compound 0.02 µM,0.478
same,relative viability,NCI-H1915; first compound 0.06325 µM,0.318
same,relative viability,NCI-H1915; first compound 0.2 µM,0.24
same,relative viability,HCC-78; first compound 0.002 µM,0.461
same,relative viability,HCC-78; first compound 0.02 µM,0.467
same,relative viability,HCC-78; first compound 0.06325 µM,0.51
same,relative viability,HCC-78; first compound 0.2 µM,0.427
same,relative viability,LK-2; first compound 0.002 µM,0.679
same,relative viability,LK-2; first compound 0.006325 µM,0.563
same,relative viability,LK-2; first compound 0.02 µM,0.351
same,relative viability,LK-2; first compound 0.06325 µM,0.0849
same,relative viability,LK-2; first compound 0.2 µM,0.0745
same,relative viability,NCI-H647; first compound 0.002 µM,0.442
same,relative viability,NCI-H647; first compound 0.006325 µM,0.396
same,relative viability,NCI-H647; first compound 0.02 µM,0.207
same,relative viability,NCI-H647; first compound 0.06325 µM,0.0721
same,relative viability,NCI-H647; first compound 0.2 µM,0.0558
same,relative viability,EKVX; first compound 0.002 µM,0.431
same,relative viability,EKVX; first compound 0.006325 µM,0.364
same,relative viability,EKVX; first compound 0.02 µM,0.184
same,relative viability,EKVX; first compound 0.06325 µM,0.342
same,relative viability,EKVX; first compound 0.2 µM,0.138
same,relative viability,HCC-15; first compound 0.002 µM,0.815
same,relative viability,HCC-15; first compound 0.006325 µM,0.776
same,relative viability,HCC-15; first compound 0.02 µM,0.875
same,relative viability,HCC-15; first compound 0.06325 µM,0.321
same,relative viability,HCC-15; first compound 0.2 µM,0.127
same,relative viability,NCI-H522; first compound 0.002 µM,0.848
same,relative viability,NCI-H522; first compound 0.006325 µM,0.937
same,relative viability,NCI-H522; first compound 0.02 µM,0.764
same,relative viability,NCI-H522; first compound 0.06325 µM,0.861
same,relative viability,NCI-H522; first compound 0.2 µM,0.411
same,relative viability,HCC-366; first compound 0.002 µM,0.363
same,relative viability,HCC-366; first compound 0.006325 µM,0.358
same,relative viability,HCC-366; first compound 0.02 µM,0.411
same,relative viability,HCC-366; first compound 0.06325 µM,0.0279
same,relative viability,HCC-366; first compound 0.2 µM,0.0276
same,relative viability,201T; first compound 0.002 µM,0.363
same,relative viability,201T; first compound 0.006325 µM,0.366
same,relative viability,201T; first compound 0.02 µM,0.309
same,relative viability,201T; first compound 0.06325 µM,0.352
same,relative viability,201T; first compound 0.2 µM,0.356
same,relative viability,NCI-H661; first compound 0.002 µM,0.427
same,relative viability,NCI-H661; first compound 0.006325 µM,0.396
same,relative viability,NCI-H661; first compound 0.02 µM,0.315
same,relative viability,NCI-H661; first compound 0.06325 µM,0.309
same,relative viability,NCI-H661; first compound 0.2 µM,0.322
same,relative viability,A-427; first compound 0.002 µM,0.516
same,relative viability,A-427; first compound 0.006325 µM,0.488
same,relative viability,A-427; first compound 0.02 µM,0.503
same,relative viability,A-427; first compound 0.06325 µM,0.467
same,relative viability,A-427; first compound 0.2 µM,0.258
same,relative viability,NCI-H460; first compound 0.002 µM,0.288
same,relative viability,NCI-H460; first compound 0.006325 µM,0.126
same,relative viability,NCI-H460; first compound 0.02 µM,0.0359
same,relative viability,NCI-H460; first compound 0.06325 µM,0.0096
same,relative viability,NCI-H460; first compound 0.2 µM,0.0106
same,relative viability,BEN; first compound 0.002 µM,0.472
same,relative viability,BEN; first compound 0.006325 µM,0.468
same,relative viability,BEN; first compound 0.02 µM,0.438
same,relative viability,BEN; first compound 0.06325 µM,0.409
same,relative viability,BEN; first compound 0.2 µM,0.323
same,relative viability,SK-MES-1; first compound 0.002 µM,0.296
same,relative viability,SK-MES-1; first compound 0.006325 µM,0.335
same,relative viability,SK-MES-1; first compound 0.02 µM,0.368
same,relative viability,SK-MES-1; first compound 0.06325 µM,0.151
same,relative viability,SK-MES-1; first compound 0.2 µM,0.172
